{"source": "patent US20240197828A1", "about": "“Chimeric molecule to treat sepsis and other inflammatory conditions” (THE FEINSTEIN INSTITUTES FOR MEDICAL RESEARCH, priority 2022, published 2024)", "tested_on": "WT mice", "assay": "Sterile eCIRP-induced inflammation by rmCIRP injection in mice", "type": "in vivo, mouse", "conditions": "rmCIRP 5 mg/kg co-incubated 30 min with test substance, r.o. injection, 4 hours, vs eCIRP alone", "description": "FIG. 5A-5B. eCIRP-induced inflammation is attenuated by MOP3. WT mice were treated according to respective groups: PBS (volume equivalent), rmCIRP (5 mg/kg), or MOP3 (10 μg/kg) co-incubated with rmCIRP (5 mg/kg) for 30 mins prior to r.o. injection. After 4 hours, serum was measured for IL-6 (A) and TNFα (B) levels by ELISA. All experiments were performed 3 times, and all data were used for analysis (N=7-10). Data are expressed as mean±SEM and compared by one-way ANOVA and SNK test. *p<0.05 vs. PBS, #p<0.05 vs. eCIRP.\nAdult (8-12 weeks) male, C57BL/6 wild-type (WT) mice (20-30 g) were purchased from Charles River Laboratories. […] For the design of in vivo models, sample size calculation was driven by variability, effect size, significance level and power as determined through performance of early feasibility and optimization pilot studies. […]\nThe mouse macrophage cell culture supernatants were analyzed for cytokine levels using ELISA kits (BD Biosciences, CA). […] TNF-α and IL-6 levels were measured in cell supernatants by ELISA in accordance with respective manufacturers' instructions (BD Biosciences, CA). Blood was collected, centrifuged at 4,000 RPM for 10 minutes, and sera was separated and analyzed for cytokine levels using ELISA kits (BD Biosciences, CA). TNF-α and IL-6 levels in the serum were measured by ELISA in accordance with respective manufacturers' instructions. […]", "note": "Residues, ends and D or L forms follow the SMILES beside them.", "data": [{"smiles": "CC(C)C[C@H](NC(=O)[C@H](CC(N)=O)NC(=O)[C@H](Cc1c[nH]c2ccccc12)NC(=O)[C@@H](NC(=O)[C@H](CCCCN)NC(=O)[C@H](Cc1ccc(O)cc1)NC(=O)[C@H](CO)NC(=O)[C@H](CO)NC(=O)[C@H](CO)NC(=O)[C@H](CC(=O)O)NC(=O)CNC(=O)[C@@H](N)CCCNC(=N)N)[C@@H](C)O)C(=O)N[C@@H](CCCNC(=N)N)C(=O)N[C@@H](C)C(=O)N[C@@H](Cc1ccccc1)C(=O)NCC(=O)N[C@@H](Cc1c[nH]c2ccccc12)C(=O)N[C@@H](Cc1ccc(O)cc1)C(=O)O", "note": "[MOP3, RGDSSSYKTWNLRAFGWY] (H-RGDSSSYKTWNLRAFGWY-OH; N-terminus and C-terminus assumed)", "values": [{"measurement": "serum IL-6 levels", "result": "reduced systemic levels"}, {"measurement": "serum TNFα levels", "result": "reduced systemic levels"}]}]}
